Activity calls are given as the source filed them.
Assays:
[1] = molecular target: T1, RNA-binding protein pos-1 (Caenorhabditis elegans, UniProt G5EF15); experiment: disruptors of C. elegans POS-1 RNA interaction – biochemical, fluorescence polarization, dose response (AID 1964);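 further: purified POS-1 fused to maltose binding protein made in E. coli; potency of compounds blocking POS-1 binding to fluorescent RNA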
T1 sequence (G5EF15 whole entry): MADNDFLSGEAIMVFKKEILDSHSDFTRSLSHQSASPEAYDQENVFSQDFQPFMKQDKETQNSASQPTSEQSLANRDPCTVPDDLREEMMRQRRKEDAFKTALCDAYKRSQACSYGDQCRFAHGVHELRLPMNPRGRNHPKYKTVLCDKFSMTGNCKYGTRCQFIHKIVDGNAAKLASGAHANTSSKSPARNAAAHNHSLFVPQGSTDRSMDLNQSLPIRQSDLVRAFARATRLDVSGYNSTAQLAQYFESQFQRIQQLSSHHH

[2] = molecular target: T2, Zinc finger protein mex-5 (Caenorhabditis elegans, UniProt Q9XUB2); experiment: potency of MEX-5 RNA-binding blockers – biochemical, C. elegans, fluorescence polarization, dose response (AID 1960)
T2 sequence (Q9XUB2 whole entry): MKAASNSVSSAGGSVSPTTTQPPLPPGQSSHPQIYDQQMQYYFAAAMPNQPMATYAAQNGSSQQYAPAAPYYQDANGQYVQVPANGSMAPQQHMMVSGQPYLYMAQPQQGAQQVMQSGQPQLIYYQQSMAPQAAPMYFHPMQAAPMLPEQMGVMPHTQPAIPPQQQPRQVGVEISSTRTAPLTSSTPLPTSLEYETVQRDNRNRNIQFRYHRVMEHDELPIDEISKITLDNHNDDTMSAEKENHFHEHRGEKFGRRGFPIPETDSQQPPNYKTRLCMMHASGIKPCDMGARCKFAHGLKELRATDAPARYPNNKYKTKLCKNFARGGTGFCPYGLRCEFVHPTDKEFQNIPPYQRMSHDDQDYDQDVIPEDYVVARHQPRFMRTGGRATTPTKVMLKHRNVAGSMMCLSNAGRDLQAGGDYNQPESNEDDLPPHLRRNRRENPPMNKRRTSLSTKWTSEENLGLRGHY

[3] = system: P388/ADR; experiment: cells; assay type: functional; conditions: Mus musculus
[4] = system: SN12K1; experiment: cells; assay type: functional; conditions: Homo sapiens
[5] = system: P388; experiment: cells; assay type: functional; conditions: Mus musculus
[6] = molecular target: DNA dC->dU-editing enzyme APOBEC-3A (Homo sapiens, UniProt P31941); experiment: Dose Response confirmation of small molecule APOBEC3A DNA Deaminase Inhibitors via a fluorescence-based single-stranded DNA deaminase assay. [Related pubchem assays (depositor defined):AID493011, AID493024]; assay type: functional
[7] = molecular target: DNA dC->dU-editing enzyme APOBEC-3G (Homo sapiens, UniProt Q9HC16); assay type: functional;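 further: Dose-response counterscreen measuring inhibition of APOBEC3G DNA deaminase activity, run while confirming APOBEC3A inhibitors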
[8] = blockers of HIV-1 envelope-mediated cell-cell fusion – cherry-pick, dose response (AID 652057); assay type: functional, cell-based
[9] = HIV-1 AD8 envelope cell-cell fusion blockers – cherry-pick, dose response (AID 652062); assay type: functional, cell-based;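 further: luciferase signal from cell-cell fusion driven by HIV-1 clade B AD8 Env; potency is for inhibitors of fusion seen as a drop in luminescence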
[10] = viability of uninfected HEp-2 cells – cell-based, HTS, cytotoxicity control for RSV inhibitor project, dose response (AID 2410); assay type: functional; conditions: human respiratory syncytial virus
[11] = molecular target: T3, Probable nicotinate-nucleotide adenylyltransferase (Staphylococcus aureus (strain N315), UniProt P65502); assay type: functional, Staphylococcus aureus subsp. aureus N315;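 on IC50 Mean: confirmatory dose-response retesting of NadD inhibitor hits first found in an ultra-high-throughput screen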
[12] = molecular target: T3, Probable nicotinate-nucleotide adenylyltransferase; assay type: functional, Staphylococcus aureus subsp. aureus N315; conditions: read-out: IC50_Mean
[13] = viability of PTEN-deleted HCT116 cells – cell-based, HCT116 PTEN knockout, dose response (AID 1047); assay type: functional;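 further: HCT116 colon tumor cells with PTEN knocked out; cells exposed to compound for 60 hours before readout; potency for loss of cell viability measured by luminescence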
[14] = viability of HCT116 lacking mutant beta-catenin – cell-based, human colon tumor, dose response (AID 1045); assay type: functional;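 further: HCT116 colon tumor cells with beta catenin knocked out; cells exposed to compound for 60 hours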
[15] = system: Vero; experiment: cells; assay type: functional; conditions: Chlorocebus sabaeus
[16] = luciferase reporter signal suppression in cells – H4 neuroglioma cells, luminescence, dose response (AID 1990); assay type: functional, cell-based
[17] = system: Streptococcus sp. 'group A'; experiment: Streptococcus pyogenes SK(-)GAS viability under kanamycin – luminescence, BacTiterGlo, confirmation, counter-screen for streptokinase expression inhibitor project, dose response (AID 1900); assay type: functional, organism-based
[18] = Luminescence Cell-Based Dose Response HTS to Identify Inhibitors of 5'UTR Stem-Loop Driven Prion Protein mRNA Translation in H4 Neuroglioblastoma Cells. [Related pubchem assays: 1827 (Project Summary), 1813 (Primary HTS)]; assay type: functional
[19] = alpha-synuclein stem-loop luciferase translation blockers – H4 neuroglioma cells, luminescence, confirmation (AID 1988); assay type: functional, cell-based
[20] = system: Streptococcus; experiment: GAS UMAA2166 growth inhibition – luminescence, BacTiterGlo, counter-screen for streptokinase expression inhibitor project, dose response (AID 1915); assay type: functional, organism-based;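 further: potency for reduction of bacterial viability or growth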
[21] = molecular target: T4, Corticotropin-releasing factor receptor 2/Corticotropin-releasing factor-binding protein (Homo sapiens, UniProt P24387+Q13324); experiment: Dose Response confirmation of uHTS hits for small molecule antagonists of the CRF-binding protein and CRF-R2 receptor complex.; assay type: functional; conditions: read-out: IC50_Mean
T4 sequence (Q13324 whole entry): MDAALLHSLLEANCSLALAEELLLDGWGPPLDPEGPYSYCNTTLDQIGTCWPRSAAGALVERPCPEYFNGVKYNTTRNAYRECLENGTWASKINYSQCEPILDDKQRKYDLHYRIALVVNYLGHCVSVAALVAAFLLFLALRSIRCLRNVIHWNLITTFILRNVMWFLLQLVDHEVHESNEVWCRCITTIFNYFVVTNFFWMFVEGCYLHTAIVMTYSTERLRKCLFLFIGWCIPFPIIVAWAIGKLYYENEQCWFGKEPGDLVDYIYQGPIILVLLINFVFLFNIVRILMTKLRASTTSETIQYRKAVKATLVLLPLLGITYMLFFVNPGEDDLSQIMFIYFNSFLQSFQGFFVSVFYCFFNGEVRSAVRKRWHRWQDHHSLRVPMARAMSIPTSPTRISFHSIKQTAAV
T4 sequence (P24387 whole entry): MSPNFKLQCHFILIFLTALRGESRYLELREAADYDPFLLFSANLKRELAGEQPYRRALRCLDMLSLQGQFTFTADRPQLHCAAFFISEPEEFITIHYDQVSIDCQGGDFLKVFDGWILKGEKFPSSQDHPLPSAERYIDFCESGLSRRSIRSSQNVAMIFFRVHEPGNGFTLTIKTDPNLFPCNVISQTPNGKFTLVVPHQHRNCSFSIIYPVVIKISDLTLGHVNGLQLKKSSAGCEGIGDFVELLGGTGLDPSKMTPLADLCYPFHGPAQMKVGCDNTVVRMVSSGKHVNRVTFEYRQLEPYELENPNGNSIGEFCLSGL

[22] = molecular target: T4, Corticotropin-releasing factor receptor 2/Corticotropin-releasing factor-binding protein; experiment: activators of CRF receptor 2 with binding protein – uHTS hits, confirmation (AID 602473); assay type: functional; conditions: read-out: EC50_Mean

T3 sequence (P65502 whole entry): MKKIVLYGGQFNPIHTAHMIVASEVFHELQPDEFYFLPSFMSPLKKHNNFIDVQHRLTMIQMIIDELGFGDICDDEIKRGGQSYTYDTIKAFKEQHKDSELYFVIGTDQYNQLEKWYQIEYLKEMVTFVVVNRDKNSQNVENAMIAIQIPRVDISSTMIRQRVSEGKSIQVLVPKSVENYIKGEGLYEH
Chain of DNA dC->dU-editing enzyme APOBEC-3G (Q9HC16 whole entry, the tested form may be a part): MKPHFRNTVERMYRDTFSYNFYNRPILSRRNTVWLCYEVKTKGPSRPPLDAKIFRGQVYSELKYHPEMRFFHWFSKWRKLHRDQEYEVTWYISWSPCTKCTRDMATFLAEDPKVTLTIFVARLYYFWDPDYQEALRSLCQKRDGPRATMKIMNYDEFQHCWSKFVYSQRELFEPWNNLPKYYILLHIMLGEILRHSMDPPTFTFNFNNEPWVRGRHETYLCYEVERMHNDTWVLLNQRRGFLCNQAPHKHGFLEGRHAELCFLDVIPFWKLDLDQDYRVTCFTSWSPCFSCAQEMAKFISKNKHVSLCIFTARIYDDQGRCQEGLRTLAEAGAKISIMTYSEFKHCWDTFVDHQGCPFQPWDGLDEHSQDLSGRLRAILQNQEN
Chain of DNA dC->dU-editing enzyme APOBEC-3A (P31941 whole entry): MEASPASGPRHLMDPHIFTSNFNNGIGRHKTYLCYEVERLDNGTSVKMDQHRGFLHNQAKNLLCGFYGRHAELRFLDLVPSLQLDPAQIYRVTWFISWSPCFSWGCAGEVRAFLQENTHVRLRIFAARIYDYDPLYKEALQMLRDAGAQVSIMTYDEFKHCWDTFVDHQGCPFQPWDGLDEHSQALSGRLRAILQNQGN

For CCOC(=O)c1ccc2c(c1)C1C=CCC1C(C(=O)OCC)N2 (centres undefined), the EC50 [1] was > 300 µM (not active) and the EC50 [2] was > 300 µM (not active).

For O=C1C(CO)=C[C@H](O)[C@H]2O[C@@H]12, the GI50 [3] was 29.9 µM (inactive), the GI50 [4] was 116 µM (inactive) and the GI50 [5] was 38.9 µM (inactive).

In the case of COCCNC1=N[C@@H](c2ccc(Br)cc2)C(C(=O)OC)=C(C)N1Cc1ccccc1, the IC50 [6] is reported as 12 µM (active) and the IC50 [7] is reported as 15.1 µM (active).

In the case of CC(C(=O)O)c1cnn(-c2ccccc2)c1-n1cccc1 (centres undefined), the GI50 [3] is reported as > 100 µM (inactive), the GI50 [4] is reported as > 100 µM (inactive) and the GI50 [5] is reported as > 100 µM (inactive).

In the case of Cc1cn(C2CC(O)C(CO)O2)c(=O)[nH]c1=O (centres undefined), the GI50 [3] is reported as 91.8 µM (inactive), the GI50 [4] is reported as 857 µM (inactive) and the GI50 [5] is reported as 57.4 µM (inactive).

In the case of C[C@H](CO)N1C[C@H](C)[C@H](CN(C)Cc2cccc(F)c2)OCc2ccccc2-c2ccccc2C1=O, the AC50 [8] is reported as < 0.26 µM (active) and the AC50 [9] is reported as < 0.26 µM (active).

With C#CCn1/c(=N/C(=O)c2cc(-c3cccs3)nc3ccccc23)sc2cc(S(N)(=O)=O)ccc21 the CC50 [10] was > 50 µM (active), the IC50 [11] was 12.8 µM (active) and the IC50 [12] was 24.6 µM (active).

In the case of N#CC1=C(N)OC2=C(CC/C2=C\c2ccccc2Cl)C1c1ccccc1Cl (centres undefined), the EC50 [13] is reported as 21.1 µM (active), the EC50 [14] is reported as 18.3 µM (active) and the CC50 [15] is reported as 22 µM (active).

In the case of Cc1cccc(-n2nc3c(c2NC(=O)c2ccc(Br)o2)CSC3)c1, the IC50 [11] is reported as 4.58 µM (active) and the IC50 [12] is reported as 17.5 µM (active).

In the case of CSc1cc(=O)n2c3ccccc3c3ccnc1c32, the GI50 [3] is reported as > 100 µM (inactive), the GI50 [4] is reported as 81.5 µM (inactive) and the GI50 [5] is reported as > 100 µM (inactive).

In the case of CC1=NN(C(=O)c2ccc(C)cc2)C(=O)C1/N=N/c1ccccc1C(=O)O (centres undefined), the GI50 [3] is reported as > 100 µM (inactive), the GI50 [4] is reported as > 100 µM (inactive) and the GI50 [5] is reported as 17.5 µM (inactive).

With CC(C)(C)c1ccc(C(=O)NNC(=S)NC(=O)c2cccnc2)cc1 the EC50 [16] was 14.4 µM (active), the EC50 [17] was 0.47 µM (active) and the EC50 [18] was 18.2 µM (active). For the same compound, the EC50 [19] was 10.8 µM (active), the EC50 [20] was 2.42 µM (active) and the CC50 [15] was > 25 µM (active).

For Cc1ccccc1COc1ccc(C(=O)C2=C(O)C(=O)N(CCCn3ccnc3)C2c2ccco2)cc1 (centres undefined), the IC50 [21] was > 47.1 µM (inactive), the EC50 [22] was > 53 µM (inactive) and the IC50 [11] was 10.5 µM (active). For the same compound, the IC50 [12] was 80 µM (inactive).

Reference: ChEMBL document CHEMBL1201862, “PubChem BioAssay data set” (2004)
